Patent US11065251B2, “PAK1 inhibitors and uses thereof” (Albert Einstein College of Medicine, priority 2016, dated 2021)
Converted amounts (≈) assume the structure as drawn. Like-named read-outs stand apart in the source and are kept apart here.

What was measured:
PAK1 = PAK1 (Homo sapiens, UniProt Q13153); assay: PAK1 IC50 determination, Z'-LYTE kinase assay; assay type: biochemical; details: [ATP]=10×Km; [PAK1]=1 ng; read-out: IC50 against PAK1
Experimental: Protocol for determining IC50 Values for test compounds at [ATP]=10×Km; [PAK1]=1 ng
Add 2 ml 5× Kinase Buffer to 8 ml water to prepare […] of Kinase Buffer A.
• Thaw the concentrated stock of test compound at room temperature. • 2.1. Add 10 μl of 100% DMSO to row A, columns 2-11 (wells A2-A11) in a 96-well assay plate (non-binding surface). To well A1, add 15 μl of the concentrated stock of test compound. This will be the highest concentration of test compound in a 10-point titration curve. Use a concentration that is 100× the final desired 1× concentration per 10 μl kinase reaction. For example, if the final 1× concentration of 100 μM is desired for the highest concentration of test compound in the 10 point titration curve, add 15 μl of 10 mM test compound to well A1. • 2.2. Titrate the 100× test compound three-fold across the assay plate from well A1 to well A10. To perform this threefold titration, transfer 5 μl of the 100× test compound from well A1 to the 10 μl of 100% DMSO in well A2. Repeat for wells A2-A10. Discard the final 5 μl from well A10 so that all wells contain 10 μl. […] This completes the 10-point three-fold titration of test compound at 100× concentration. • 2.3. Transfer a 2 μl aliquot of the 100× test compound titration series from each well in row A of the 96-well assay plate (wells A1-A12) to row B (wells B1-B12). Add 48 μl of complete kinase reaction buffer to each well in row B to dilute the 100× three-fold titration series of test compound to 4× (the DMSO will also be diluted, to 4%). • 2.4. Transfer 2.5 μl of the 4× concentrated three-fold titration series of test compound from row B of the 96-well assay plates to quadruplicate wells of a 384-well assay plate. Each well in columns 21-24 should contain 2.5 μl of 4% DMSO (no compound) in complete kinase reaction buffer. This 2.5 μl addition of 4× test compound in 4% DMSO produces a 1× concentration of test compound in 1% DMSO for a 10 μl kinase reaction. • 2.5. Dispense 2.5 μl of complete kinase reaction buffer to each well in columns 23-24 of the 384-well assay plate.
• 1. Prepare 500 μl of 4 μM Z′-LYTE® Phospho-peptide by adding 2 μl of 1 mM Z′-LYTE® Phospho-peptide to 498 μl of complete kinase reaction buffer. • 2. Dispense 5 μl of the 4 μM Z′-LYTE® Phospho-peptide (2×) to each well in column 24 of the 384-well assay plate. • 3. Prepare 1000 μl of 4 μM Z′-LYTE® Peptide Substrate (2×)/2× kinase solution in complete kinase reaction buffer. If necessary, prepare an intermediate dilution of the kinase in complete kinase reaction buffer before preparing the Z′-LYTE™ Peptide Substrate (2×)/2× kinase solution. Use the appropriate 2× kinase concentration in the assay to phosphorylate 20-50% of the 0% inhibition controls at the ATP concentration desired. • 4. […]

[1] = Microsomal stability, human (HLM); assay type: in vitro ADME
[2] = Microsomal stability, rat (RLM); assay type: in vitro ADME
[3] = Pharmacokinetic (PK) assessment in rats; assay type: in vivo; details: for Cmax / Tmax / MRT last / half-life / AUC(0-t) / AUC(0-inf): rat, plasma; for MRT last: read-out: MRT MRT last; for half-life: read-out: T ½ HL_Lambda_z (converted); for AUC(0-t): read-out: AUC0→t AUC last; for AUC(0-inf): read-out: AUC0→∞ AUC INF_obs
Solubility assessment = assay type: physicochemical; details: kinetic from dmso stock
Caco-2 permeability = assay type: in vitro ADME; details: human

PAK1, sequence (Q13153 whole entry): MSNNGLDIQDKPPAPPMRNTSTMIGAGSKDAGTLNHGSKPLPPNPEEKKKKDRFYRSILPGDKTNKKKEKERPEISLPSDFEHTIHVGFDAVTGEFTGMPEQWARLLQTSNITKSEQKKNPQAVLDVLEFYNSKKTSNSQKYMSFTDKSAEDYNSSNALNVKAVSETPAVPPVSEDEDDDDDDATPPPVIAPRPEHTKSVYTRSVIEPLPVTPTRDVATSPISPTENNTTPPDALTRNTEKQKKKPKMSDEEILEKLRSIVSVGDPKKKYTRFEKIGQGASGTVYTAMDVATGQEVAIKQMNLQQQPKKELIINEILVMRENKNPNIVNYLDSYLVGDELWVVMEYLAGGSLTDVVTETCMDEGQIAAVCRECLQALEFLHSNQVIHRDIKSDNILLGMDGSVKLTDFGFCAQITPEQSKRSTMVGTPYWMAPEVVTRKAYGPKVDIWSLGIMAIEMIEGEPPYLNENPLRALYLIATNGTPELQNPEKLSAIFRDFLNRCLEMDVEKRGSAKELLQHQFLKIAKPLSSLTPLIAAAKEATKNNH

Compound: CCn1c(=O)c(-c2ccc(-c3nc(C)c[nH]3)cc2Cl)cc2cnc(Nc3ccc(N4CCN(C)CC4)cc3)nc21 [Compound 42-0125_1]
- IC50 (PAK1): < 30 nM
- microsomal CLint ([1]; human, human liver microsomes, HLM): 12 µL/min/mg
- half-life ([1]; liver microsomes, human microsomes, read-out: t½): 1.98 h
- half-life ([2]; liver microsomes, rat microsomes, read-out: t½): 2.45 h
- microsomal CLint ([2]; rat, rat liver microsomes, RLM): 9 µL/min/mg
- Cl_obs ([3]; IV, 3 mg/kg): 4.97 mL/min/kg
- Vss_obs ([3]; IV, 3 mg/kg): 1.705 L/kg
- Biovailability ([3]; PO 30 mg/kg versus IV 3 mg/kg): 13.9%
- Cmax ([3]; IV, 3 mg/kg): 3620 ng/mL
- Tmax ([3]; IV, 3 mg/kg): 0.17 h
- MRT last ([3]; IV, 3 mg/kg): 5 h
- half-life ([3]; IV, 3 mg/kg): 5 h
- Cmax ([3]; PO, 30 mg/kg): 943 ng/mL
- Tmax ([3]; PO, 30 mg/kg): 8 h
- MRT last ([3]; PO, 30 mg/kg): 10 h
- half-life ([3]; PO, 30 mg/kg): 6.19 h
- AUC(0-t) ([3]; iv, 3 mg/kg, IV, 3 mg/kg): 9750 ng·h/mL
- AUC(0-inf) ([3]; iv, 3 mg/kg, IV, 3 mg/kg): 10100 ng·h/mL
- AUC(0-t) ([3]; po, 30 mg/kg, PO, 30 mg/kg): 12600 ng·h/mL
- AUC(0-inf) ([3]; po, 30 mg/kg, PO, 30 mg/kg): 14000 ng·h/mL
- solubility (Solubility assessment; aqueous buffer, UB pH 2, 1% DMSO, read-out: Solubility in UB pH 2, 1% DMSO): 59 µM (≈ 32.8 µg/mL)
- solubility (Solubility assessment; aqueous buffer, UB pH 7, 1% DMSO, read-out: Solubility in UB pH 7, 1% DMSO): 25 µM (≈ 13.9 µg/mL)
- solubility (Solubility assessment; simulated gastric fluid, SGF, 1% DMSO, read-out: Solubility in SGF, 1% DMSO): 58 µM (≈ 32.2 µg/mL)
- efflux ratio (Caco-2 permeability; Caco-2, read-out: Assym index): 1
- Papp A→B (Caco-2 permeability; Caco-2, A-B): 3.9 ×10⁻⁶ cm/s
- Papp B→A (Caco-2 permeability; Caco-2, B-A): 3.8 ×10⁻⁶ cm/s
